Literature values, collected in patent publication US20020132846A1, “Use of gamma substituted gamma-butyrolactones to increase levels of their corresponding substituted gamma-hydroxybutyrate derivatives in humans” (priority 2001, published 2002).

Experiments:
lactonase = settings: oral ingestion, lactonase catalyzed hydrolysis; reference (7)
[1] = used according to prescribed dosing levels and schedules

O=C1CCCO1 [gamma-butyrolactone]
formation of the parent compound gamma-hydroxybutyrate (lactonase): rapidly forms the parent compound

CC(O)CCC(=O)O (stereo not shown) [4-methyl substituted gamma-hydroxybutyrate]
affinity for the GHB receptor (GHB receptor; compared with gamma-hydroxybutyrate itself): greater affinity than gamma-hydroxybutyrate itself
more potent at the receptor than gamma-hydroxybutyrate itself (GHB receptor; relative to gamma-hydroxybutyrate, reference (8)): 15%

O=C(O)CCCO [gamma-hydroxybutyrate]
physical or psychological addiction [1]: no reports of physical or psychological addiction
